Read-outs that look alike come from different tables or passages of the source.
Key:
[1] = tested on: human tumor cell lines (approximately 60); assay: NCI in vitro human tumor cell line screen (SRB), mean graph midpoints over all cell lines; assay type: cell-based
Protocol: In performing in vitro human tumor cell line assay, a total of approximately 60 human tumor cell lines derived from ten cancer types (leukemia, non-small cell lung cancer, small cell lung cancer, colon cancer, CNS cancer, melanoma, ovarian cancer, renal cancer, breast cancer and prostate cancer) were used in this assay. Compounds were tested at different concentrations against every cell line. All lines are inoculated into a series of standard 96-well microtiter plates on day 0, in the majority of cases at 20,000 cells/well, and then pre-incubated in the absence of testing agent for 24 hours. A testing agent was then added in five 10-fold dilutions and incubated for a further period of 48 hours. Following this, the cells are fixed in situ, washed, and dried. Sulforhodamine B (SRB, protein binding dye) is added, followed by further washing and drying of the stained adherent cell mass. The bound stain is solubilized and measured spectrophotometrically on an automatic plate reader.
For each compound, dose response curves for each cell line were measured with five different drug concentrations, and the concentration causing 50% cell growth inhibition (GI50), total cell growth inhibition (TGI, 0% growth), and 50% cell death (LC50, -50% growth) compared with the control was calculated. […] In these graphs, the mean logarithmic value of GI50 in all cell lines for each tested compound is used as the midpoint of that bar graph.

P388 Murine Leukemia = P388 Murine Leukemia in vivo
Protocol: Two of the compounds of the present invention (Ic and Im) were also tested against P388 Murine Leukemia.

[2] = tested on: T cells (splenic T cell proliferation, co-cultured spleen cells from two strains of mice); assay: Mixed lymphocyte response (MLR); assay type: cell-based; conditions: Mus musculus, Anti-inflammatory/Anti-proliferative Activity
Excerpt: i Mixed lymphocyte response (MLR).
(§1) The MLR assay measures the effects of a study compound on the activation and antigen presentation of T-lymphocytes, therefore determining immunomodulatory properties. The mouse spleen cell mitogen-induced blastogenesis and the BUD-8 human fibroblast proliferation assays measure the effects of the compounds of the present invention on cellular proliferation of cells involved in the pathogenesis of autoimmune diseases. These two assays are appropriate as screens to ascertain anti-inflammatory and/or autoimmune diseases.
The MLR is a classical assay used to measure T cell function by studying the proliferation response of T cells which are activated in vitro by genetically disparate stimulator cells. This is accomplished by co-culturing spleen cells from two different strains of mice. Splenic T cell proliferation occurs as a result of cellular activation signals generated by the ongoing cellular interactions.
(§2) The detailed experimental procedure for the above-mentioned assays is described in detail in U.S. Pat. Nos. 5,360,790 and 5,367,062 incorporated herein by reference.

[3] = tested on: COLO 205 Colon Tumor Xenografts; assay: Early Stage SC COLO 205 Colon Tumor Xenografts; conditions: for Drug Deaths: of 6 mice; for Opt. % T/C: >40 considered inactive
Protocol: (§3) In this in vivo model Murine or human tumor fragments (30 mg) are implanted subcutaneously into the axillary region of pathogen-free immunocompetent or immunodefficient mice, respectively, on experimental day 0. Test agent treatment is initiated either on the day which is historically associated with the start of tumor growth, or when the tumor is palpable. Tumor size and body weights are obtained approximately two times per week. Tumor weights are calculated from caliper measurements of tumor dimensions in mm using the formula for a prolate ellipsoid:
(§4) (L×W^2)/2; where L is the longer of the 2 measurements
(§5) Generally, tumor size is monitored until an upper weight limit of 500 mg is attained.

[4] = tested on: UACC-62 Melanoma Xenografts; assay: Early Stage Subcutaneous Tumor Model UACC-62 Melanoma Xenografts; conditions: for Drug Deaths: of 6 mice; for Opt. % T/C: >40 considered inactive
Protocol: as §3, §4, §5

[5] = tested on: SK-MEL-28 Melanoma Xenografts; assay: Early Stage SK-MEL-28 Melanoma Xenografts; conditions: for Drug Deaths: of 6 mice; for Opt. % T/C: >40 considered inactive
Protocol: as §3, §4, §5

BUD-8 human fibroblast = assay: BUD-8 human cell line fibroblast proliferation assay (FIB.); assay type: cell-based; conditions: Anti-inflammatory/Anti-proliferative Activity
Excerpt: ii BUD-8 human cell line fibroblast proliferation assay.
as §1
The skin cell fibroblast line, BUD-8, was originally derived from the normal skin of a person and can now be obtained from the American Type Culture Collection, Rockville, Md.
as §2

[6] = tested on: mouse spleen cell (T-lymphocyte); assay: Concanavalin A (CON-A) assay, mouse spleen cell mitogen induced blastogenesis; assay type: cell-based; conditions: Anti-inflammatory/Anti-proliferative Activity
Excerpt: iii Concanavalin A assay (the mouse spleen cell mitogen induced blastogenesis).
as §1
It is known that the induction and maintenance of most inflammatory diseases are typically due to the unrestricted activity of T-lymphocytes. Therefore, it is advantageous to identify compounds which are modulators of T-lymphocyte activity for eventual use in the regulation of inflammatory diseases, including acquired immune deficiency syndrome, psoriasis, systemic lupus, erythromatosus, and rheumatoid arthritis.
as §2

[7] = Ic 60, 40 and 27 mg/kg/dose, Im 120, 80 and 54 mg/kg/dose
[8] = 130 mg/kg/dose IP Q4D × 3, day 7
[9] = 130 mg/kg/dose IP QD × 5, day 3

CCCCCCCCCCCCOC[C@@]12O[C@@H](C)[C@@H](OCCN3CCCCC3)[C@@H]1OC(C)(C)O2 [Im, 2,3-O-Isopropylidene-6-deoxy-1-O-dodecyl-4-O-ethylpiperidinyl-α-L-xylo-2-hexulofuranose]
CC50 ([1]; Homo sapiens, 50% cell death (-50% growth), average of all cell lines, 48 h, read-out: log10 LC50 mean graph midpoint (converted)): 50.1 µM
GI50 ([1]; Homo sapiens, 50% cell growth inhibition, average of all cell lines, 48 h, read-out: GI50 (average)): 20.2 µM
GI50 ([1]; Homo sapiens, average of all cell lines, log10 of molar concentration, 48 h, read-out: log10 I50 (log10 GI50 mean graph midpoint) (converted)): 9.77 µM
IC (TGI) ([1]; Homo sapiens, total cell growth inhibition (0% growth), average of all cell lines, 48 h, read-out: log10 TGI mean graph midpoint (converted)): 22.9 µM
in vitro activity in words ([1]; various in vitro cell lines, IC50, average GI50, mean graph pattern): significant activity in various in vitro cell lines
antitumor activity (P388 Murine Leukemia; [7]): only slight antitumor activity
toxicity (P388 Murine Leukemia; [7]): toxic at the higher dose levels
maximally tolerated dose (P388 Murine Leukemia; mouse, in vivo): a maximally tolerated dose was not achieved
IC50 [2]: < 1 µM
Drug Deaths ([3]; 54 mg/kg/dose IP Q4D × 3, day 7): 0
Opt. % T/C ([3]; 54 mg/kg/dose IP Q4D × 3, day 7, optimum on day 36): 44%
Drug Deaths ([3]; 90 mg/kg/dose IP Q4D × 3, day 7): 0
Opt. % T/C [3, 8]: Toxic
Drug Deaths [3, 8]: 4
Opt. % T/C ([3]; Im 90 mg/kg/dose IP Q4D × 3, day 7, optimum on day 29): 45%
Drug Deaths ([4]; 54 mg/kg/dose IP Q4D × 3, day 6): 0
Opt. % T/C ([4]; 54 mg/kg/dose IP Q4D × 3, day 6, optimum on day 9): 51%
Drug Deaths ([4]; 90 mg/kg/dose IP Q4D × 3, day 6): 0
Opt. % T/C ([4]; 90 mg/kg/dose IP Q4D × 3, day 6, optimum on day 16): 44%
Drug Deaths ([4]; 130 mg/kg/dose IP Q4D × 3, day 6): 1
Opt. % T/C ([4]; 130 mg/kg/dose IP Q4D × 3, day 6, optimum on day 16): 42%
Drug Deaths ([5]; 54 mg/kg/dose IP QD × 5, day 3): 1
Opt. % T/C ([5]; 54 mg/kg/dose IP QD × 5, day 3, optimum on day 16): 47%
Drug Deaths ([5]; 90 mg/kg/dose IP QD × 5, day 3): 2
Opt. % T/C [5, 9]: Toxic
Drug Deaths [5, 9]: 5
Opt. % T/C ([5]; Im 90 mg/kg/dose IP QD × 5, day 3, optimum on day 9): 49%
IC50 (BUD-8 human fibroblast): 3.6 µM
IC50 [6]: 7.4 µM

From US5637570A, “Disubstituted and trisubstituted derivatives of 2,3:4,6-di-O-isopropylidene-α-L-xylo-2-hexulofuranosonic acid having anti-cancer, anti-inflammatory and anti-proliferative activity” (Chemora Pharmochem, priority 1995, dated 1997)
